The values that follow come from paper PMC10848157, “Assessing NH300094, a novel dopamine and serotonin receptor modulator with cognitive enhancement property for treating schizophrenia” (Frontiers in Pharmacology, 2024).

One test deals with D2L receptor (Homo sapiens, UniProt P14416). As to the kind of experiment: D2L receptor functional assay (cAMP assay, antagonist). The test is classed as cell-based. The following applies: antagonist activity, CHO-K1/D2 cells, read-out: D2LR, IC50. (In general: Changes in cAMP serve as a functional read-out for many G protein-coupled receptors.)
For a further test, the target named is T1, 5-HT1A receptor (Homo sapiens, UniProt P08908).
T1 sequence (P08908 1-422): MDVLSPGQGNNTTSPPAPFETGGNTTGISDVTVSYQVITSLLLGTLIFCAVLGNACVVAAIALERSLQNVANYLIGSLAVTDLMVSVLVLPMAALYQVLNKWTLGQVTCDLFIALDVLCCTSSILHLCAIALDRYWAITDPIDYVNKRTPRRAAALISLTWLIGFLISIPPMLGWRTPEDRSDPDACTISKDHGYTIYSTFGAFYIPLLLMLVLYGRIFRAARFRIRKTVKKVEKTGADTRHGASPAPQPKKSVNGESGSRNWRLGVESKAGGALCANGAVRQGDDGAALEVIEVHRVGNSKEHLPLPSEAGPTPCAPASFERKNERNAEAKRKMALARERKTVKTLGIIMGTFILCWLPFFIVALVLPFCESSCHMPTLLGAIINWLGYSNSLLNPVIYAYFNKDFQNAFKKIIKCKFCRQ
As to the kind of experiment: 5-HT1A receptor functional assay (cAMP assay, antagonist). The test is classed as cell-based. The settings on record: antagonist activity, CHO-K1/5-HT1A cells, read-out: 5HT1AR, IC50.

The next test has as its target 5-HT2A receptor (Homo sapiens, UniProt P28223). As to the kind of experiment: 5-HT2A receptor functional assay (calcium flow, FLIPR, antagonist). The test is classed as cell-based.
A further test has as its target T2, 5-HT2C receptor (Homo sapiens, UniProt P28335).
T2 sequence (P28335 33-458): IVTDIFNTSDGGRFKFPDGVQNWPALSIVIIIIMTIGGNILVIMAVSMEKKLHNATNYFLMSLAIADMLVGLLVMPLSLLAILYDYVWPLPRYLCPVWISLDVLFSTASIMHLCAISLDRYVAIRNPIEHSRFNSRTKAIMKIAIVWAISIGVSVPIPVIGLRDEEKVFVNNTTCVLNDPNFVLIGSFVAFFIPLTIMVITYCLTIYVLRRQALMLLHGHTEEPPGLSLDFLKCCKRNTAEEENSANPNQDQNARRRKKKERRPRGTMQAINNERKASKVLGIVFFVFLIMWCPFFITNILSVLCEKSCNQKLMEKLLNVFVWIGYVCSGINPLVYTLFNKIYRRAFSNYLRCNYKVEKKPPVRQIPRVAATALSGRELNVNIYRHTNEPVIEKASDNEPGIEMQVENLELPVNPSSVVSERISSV
As to the kind of experiment: 5-HT2C receptor functional assay (calcium flow, FLIPR). It is filed as cell-based. The settings on record: HEK293/5-HT2C cells, read-out: 5HT2cR, IC50.

A further test relates to male Wistar rats. As to the kind of experiment: Conditioned avoidance response test in rats. The test is classed as in vivo. The following applies: Rattus norvegicus, single oral dose, read-out: ED50, inhibition of conditioned avoidance response. An excerpt:
Shuttle-box Avoidance Test Video Analysis System (DigBehv-SBG, Shanghai Jiliang Software Technology Co. Ltd.) were used to assess the rats conditioned avoidance response.
Phase I: The rats responded to the conditioned stimulus (auditory and visual) by training with foot shock reinforcement. Briefly, rats were placed into the CAR shuttle boxes for a 5-min habituation followed by 30 trials presented on a 20-s variable interval (20–30 s) stimulus. Each rats were subjected to a conditioned stimulus which consisted of 10s presentation of light and white noise, and then followed by a scrambled 1.5 mA foot shock for 10 s. […] Rats with avoidance rates greater than 70% for 3 consecutive days were included in this study post-training.
Phase II: The qualified rats were randomly divided into 7 groups. […] The procedure in the testing phase was the same as the Phase I described. The number of avoidances, escapes, and escape failures were recorded.

Test [1] concerns male ICR mice. The test can be described thus: Novel object recognition in scopolamine hydrobromide-treated mice. The test is classed as in vivo. The settings on record: NOR; NH300094 0.01–0.16 mg/kg p.o.; risperidone 0.04, 0.08, 0.16 mg/kg p.o.; rivastigmine 0.3 and 1 mg/kg i.p. The protocol: The procedure was modified according to Bevins and Besheer ([Bevins and Besheer, 2006]). […] The tests were conducted in a 50 cm × 35 cm × 20 cm chamber and the mice behavior was recording using a Hikvision video recording system (H.265, Hikvision Digtial Technology Co., Ltd.). All mice were allowed to freely explore the chamber environment for 10 min, and there were no objects placed in the chamber during acclimatization period. […] Rivastigmine hydrogen tartrate group (0.1, 0.3 and 1 mg/kg, i.p.) were dosed simultaneously with scopolamine hydrobromide (3 mg/kg, i.p.). Training was conducted 30 min post scopolamine hydrobromide administration by placing a single mouse into a chamber for 10 min with two exactly same objects positioned in the center of chamber. (The distance between the two objects was more than 20 cm). […]
The experimental video was analyzed to record the time of mice exploring the new and old objects, respectively, and the differentiation index (DI) was calculated as follows: DI = new object exploration time/(new object exploration time + old object exploration time), which was used as the main evaluation index of discrimination ability. […] If the total exploration time of the new and old objects was less than 20 s, the total 10 min of video would be analyzed. […] The movement of circling without sniffing or sitting on the object was not recorded as exploration behavior.

Test [2] relates to male ICR mice. The test can be described thus: Forced swimming test in mice. The test is classed as in vivo. The settings on record: single oral dose; NH300094 0.03 mg/kg; risperidone 0.01, 0.03 and 0.1 mg/kg. As for the experimental part: Each mouse was required to swim in an open cylindrical container (height of 25 cm, diameter of 10 cm) after intragastric administration of compounds 1 h. The container contained 1.2 L of water with temperature maintained at 24°C ± 1°C. The test used a computerized analysis and tracking system (Clever Sys Inc., Leesburg, VA) to recorded the duration of immobility (last 4 min of a total time of 6 min) about the testing mice.

Test [3] relates to male ICR mice. As to the kind of experiment: APO-induced climbing in mice.
The test system of test [4] is male ICR mice. The test can be described thus: DOI-induced head twitch in mice.
The mark [5] stands for this setting: single oral dose, male ICR mice.

Chain of 5-HT2A receptor (P28223 whole entry): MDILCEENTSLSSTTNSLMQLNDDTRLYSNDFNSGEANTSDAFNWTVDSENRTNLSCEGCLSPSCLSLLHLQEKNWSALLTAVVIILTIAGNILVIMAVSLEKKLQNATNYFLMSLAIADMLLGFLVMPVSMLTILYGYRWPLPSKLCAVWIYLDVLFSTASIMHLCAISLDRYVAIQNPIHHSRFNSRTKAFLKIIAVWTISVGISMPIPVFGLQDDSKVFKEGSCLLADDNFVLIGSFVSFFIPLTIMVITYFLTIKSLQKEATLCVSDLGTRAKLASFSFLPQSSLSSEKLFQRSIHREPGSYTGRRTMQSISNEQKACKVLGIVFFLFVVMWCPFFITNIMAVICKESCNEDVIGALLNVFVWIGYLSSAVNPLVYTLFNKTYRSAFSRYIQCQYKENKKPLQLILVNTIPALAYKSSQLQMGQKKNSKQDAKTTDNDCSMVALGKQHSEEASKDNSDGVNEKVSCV
Chain of D2L receptor (P14416 whole entry): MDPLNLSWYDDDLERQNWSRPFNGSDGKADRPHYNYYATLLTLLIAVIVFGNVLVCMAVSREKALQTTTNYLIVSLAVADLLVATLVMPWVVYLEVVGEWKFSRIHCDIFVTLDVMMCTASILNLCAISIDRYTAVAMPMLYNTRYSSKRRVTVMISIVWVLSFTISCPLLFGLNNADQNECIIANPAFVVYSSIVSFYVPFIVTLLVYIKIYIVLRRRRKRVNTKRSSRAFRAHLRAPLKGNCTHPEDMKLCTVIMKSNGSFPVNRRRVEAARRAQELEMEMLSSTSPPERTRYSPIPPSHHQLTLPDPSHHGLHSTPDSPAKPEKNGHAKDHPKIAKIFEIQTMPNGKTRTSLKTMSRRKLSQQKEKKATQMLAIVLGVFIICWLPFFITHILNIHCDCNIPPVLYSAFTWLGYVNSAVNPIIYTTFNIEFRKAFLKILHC

For `O=C1CCc2cc(OCCCN3CCC(c4noc5cc(F)ccc45)CC3)cc3c2N1CC3` [NH300094, 8-(3-(4-(6-fluorobenzo [d]isoxazol-3-yl)piperidin-1-yl)propoxy)-1,2,5,6-tetrahydro-4H-pyrrolo [3,2,1-ij] quinolin-4-one], the half-maximal inhibitory concentration (IC50) (as a rule, the midpoint of a concentration-inhibition curve) at D2L receptor stood at 1.04 ± 0.59 nM; at 5-HT1A receptor, 85.6 ± 61.5 nM; at 5-HT2A receptor (antagonist activity, calcium flow FLIPR, CHO-K1/5-HT2A cells, read-out: 5HT2AR, IC50) it was 0.47 ± 0.79 nM; at 5-HT2C receptor, 3020 nM. Further, the “antagonistic activities ratio of 5-HT2AR and D2R (IC50 ratio)” value on 5-HT2A receptor (IC50 5-HT2AR / IC50 D2R) was 0.45. Also, the ED50 was approximately 1.02 mg/kg in the test with male Wistar rats; approximately 0.29 mg/kg with male ICR mice [3] (Mus musculus, read-out: ED50, inhibition of APO-induced climbing); approximately 0.007 mg/kg in the test with male ICR mice [4] (Mus musculus, po, read-out: ED50, inhibition of DOI-induced head twitch, single oral dose, male ICR mice, DOI 1 mg/kg). In addition, in the test with male ICR mice [1], the “effect on differentiation index (DI) of scopolamine hydrobromide-treated mice” value is recorded as “increased DI index”. Further, the “effect on immobility time in the FST” value with male ICR mice [2] is “decreased immobility time”. In addition, in the test with male ICR mice [3] (setting [5]), the “MED, APO-induced climbing” value was 0.3 mg/kg. Further, the “MED, DOI-induced head twitch” value with male ICR mice [4] (setting [5]) is 0.003 mg/kg.
